Measurements taken from paper PMC6713354, “Structural and biochemical studies of an NB-ARC domain from a plant NLR immune receptor” (PLoS ONE, 2019).

What was measured:
[1] = target: T1, NRC1 NB-ARC domain (Solanum lycopersicum, UniProt A1X877, D268N); test: luciferase assay of nucleotide released by boiling, ADP converted to ATP with pyruvate kinase; type: binding; conditions: co-purified ligand, no ADP added; protein from Sf9 cells; Walker B mutant; no ATP detected
T1 construct: NB-ARC domain, residues 150-494; E. coli Lemo21(DE3) (pOPIN-S3C, 6xHis-SUMO) or Sf9 cells (pOPIN-F, 6xHis); N-terminal tag cut with 3C protease; 346 residues in expressed construct; about 40 kDa monomer

[2] = target: T2, NRC1 NB-ARC domain (Solanum lycopersicum, UniProt A1X877); test: X-ray crystal structure, […] A (native); SeMet SAD map at […] A; conditions: co-purified ligand; nucleotide-binding pocket; E. coli-expressed protein; crystals at pH 4.5
T2 construct: NB-ARC domain, residues 150-494; E. coli Lemo21(DE3) (pOPIN-S3C, 6xHis-SUMO) or Sf9 cells (pOPIN-F, 6xHis); N-terminal tag cut with 3C protease; 346 residues in expressed construct; about 40 kDa monomer

[3] = target: T2, NRC1 NB-ARC domain; test: luciferase assay of nucleotide released by boiling, ADP converted to ATP with pyruvate kinase; type: binding; conditions: co-purified ligand, no ADP added; protein from E. coli and from Sf9 cells; no ATP detected

T2 sequence (A1X877 entry or part of it): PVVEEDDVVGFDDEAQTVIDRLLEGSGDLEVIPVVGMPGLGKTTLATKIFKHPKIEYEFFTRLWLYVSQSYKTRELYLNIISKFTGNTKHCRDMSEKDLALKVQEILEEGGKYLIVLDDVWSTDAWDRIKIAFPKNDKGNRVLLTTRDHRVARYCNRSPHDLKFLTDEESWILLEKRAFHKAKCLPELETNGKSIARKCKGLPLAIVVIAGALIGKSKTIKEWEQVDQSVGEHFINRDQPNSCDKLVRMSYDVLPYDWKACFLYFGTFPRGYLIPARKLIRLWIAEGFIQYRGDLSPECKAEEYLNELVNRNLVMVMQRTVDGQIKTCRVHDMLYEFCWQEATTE
T1 sequence (A1X877 entry or part of it D268N): as the sequence (A1X877 entry or part of it) above, with D119N counted along it

## Nc1ncnc2c1ncn2[C@@H]1O[C@H](COP(=O)(O)OP(=O)(O)O)[C@@H](O)[C@H]1O [ADP]
[1]
  % ADP occupancy: NRC1 NB-ARC^D268N, a mutant designed to abolish ATPase activity, also co-purified with ADP
[2]
  X-ray crystal structure, 2.5 A (native); SeMet SAD map at 3.03 A: allowed us to unambiguously position a molecule of ADP, and the side-chains of interacting residues
[3]
  % ADP occupancy: all three NRC1 NB-ARC proteins co-purified with ADP with high occupancy
